The term IC50 denotes the midpoint of a concentration-inhibition curve.

From article PMC10235687, “Venetoclax is a potent hepsin inhibitor that reduces the metastatic and prothrombotic phenotypes of hepsin-expressing colorectal cancer cells” (Frontiers in Molecular Biosciences, 2023) come the findings set out here.

The experiment deals with T1, Hepsin (Homo sapiens, UniProt P05981).
T1 construct: gene HPN; Recombinant hepsin (R&D Systems)
The experiment is described as follows: Fluorogenic protease assay with recombinant hepsin ([…]) and BOC-Gln-Arg-Arg-AMC ([…]), pH […] h incubation with drug. The class given is biochemical.

T1 sequence (P05981 45-162 limits assumed): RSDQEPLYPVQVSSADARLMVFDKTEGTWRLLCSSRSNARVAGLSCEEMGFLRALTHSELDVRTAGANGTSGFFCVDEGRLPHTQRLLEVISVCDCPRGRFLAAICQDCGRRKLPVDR
T1 sequence (P05981 163-417 limits assumed): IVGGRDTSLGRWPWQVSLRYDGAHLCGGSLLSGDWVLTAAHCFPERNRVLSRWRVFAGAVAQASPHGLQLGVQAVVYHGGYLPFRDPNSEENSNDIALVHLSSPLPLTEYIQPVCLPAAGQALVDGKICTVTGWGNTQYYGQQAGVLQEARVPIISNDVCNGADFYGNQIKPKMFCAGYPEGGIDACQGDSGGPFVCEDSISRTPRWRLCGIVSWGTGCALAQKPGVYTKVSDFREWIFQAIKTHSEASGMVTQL

Consider `CC1(C)CCC(CN2CCN(c3ccc(C(=O)NS(=O)(=O)c4ccc(NCC5CCOCC5)c([N+](=O)[O-])c4)c(Oc4cnc5[nH]ccc5c4)c3)CC2)=C(c2ccc(Cl)cc2)C1` [Venetoclax], for which the concentration for half-maximal inhibition (IC50) stood at 480 nM.
